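Five concentrations, 48 hours, 96-well plates. GI50 marks 50% less growth.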 Active and inactive are the calls of the source. Cut-off read from the data, not from the text of the source: active = GI50 up to about 1.1 µM and inactive = higher.
Assays:
Test in all cases: inhibition of tumour cell growth, NCI panel, 48 h
[1] = system: U-251
[2] = system: UACC-62
[3] = system: 786-0
[4] = system: A549
[5] = system: SN12C
[6] = system: MOLT-4
[7] = system: T47D
[8] = system: PC-3
[9] = system: DU-145
[10] = system: LOX IMVI
[11] = system: CAKI-1
[12] = system: EKVX
[13] = system: SF-295
[14] = system: SNB-19
[15] = system: M14
[16] = system: COLO 205
[17] = system: NCI/ADR-RES
[18] = system: IGROV-1
[19] = system: HCT-15

| Structure (SMILES) | GI50 [1] | GI50 [2] | GI50 [3] | GI50 [4] | GI50 [5] | GI50 [6] | GI50 [7] | GI50 [8] | GI50 [9] | GI50 [10] | GI50 [11] | GI50 [12] | GI50 [13] | GI50 [14] | GI50 [15] | GI50 [16] | GI50 [17] | GI50 [18] | GI50 [19] [µM] |
| --- | --- | --- | --- | --- | --- | --- | --- | --- | --- | --- | --- | --- | --- | --- | --- | --- | --- | --- | --- |
| O=c1ccc2ccc(OP(=O)(O)O)cc2o1 | > 100 µM (inactive) | > 100 µM (inactive) | > 100 µM (inactive) | > 100 µM (inactive) | > 100 µM (inactive) | > 100 µM (inactive) | > 100 µM (inactive) | > 100 µM (inactive) | 93.1 µM (inactive) | > 100 µM (inactive) | > 100 µM (inactive) | > 100 µM (inactive) | > 100 µM (inactive) | > 100 µM (inactive) | > 100 µM (inactive) | > 100 µM (inactive) | > 100 µM (inactive) | > 100 µM (inactive) | > 100 |
| COc1cc(OC)c(OC)cc1/C=N/N=C(\N)NO | > 100 µM (inactive) | > 100 µM (inactive) | > 100 µM (inactive) | > 100 µM (inactive) | > 100 µM (inactive) | > 100 µM (inactive) | > 100 µM (inactive) | > 100 µM (inactive) | > 100 µM (inactive) | > 100 µM (inactive) | > 100 µM (inactive) | > 100 µM (inactive) | 51.1 µM (inactive) | > 100 µM (inactive) | > 100 µM (inactive) | 80 µM (inactive) | > 100 µM (inactive) | > 100 µM (inactive) | > 100 |
| O=C1Nc2ccccc2C1S(=O)(=O)c1ccccc1 (stereo unspecified) | > 100 µM (inactive) | > 100 µM (inactive) | > 100 µM (inactive) | > 100 µM (inactive) | > 100 µM (inactive) | > 100 µM (inactive) | > 100 µM (inactive) | > 100 µM (inactive) | > 100 µM (inactive) | > 100 µM (inactive) | > 100 µM (inactive) | > 100 µM (inactive) | > 100 µM (inactive) | > 100 µM (inactive) | > 100 µM (inactive) | > 100 µM (inactive) | > 100 µM (inactive) | > 100 µM (inactive) | > 100 |
| COc1cccc(CCCNC(=O)Cc2cc(OC)c(OC)cc2CO)c1 | > 100 µM (inactive) | > 100 µM (inactive) | > 100 µM (inactive) | > 100 µM (inactive) | > 100 µM (inactive) | > 100 µM (inactive) | 39.1 µM (inactive) | > 100 µM (inactive) | > 100 µM (inactive) | > 100 µM (inactive) | > 100 µM (inactive) | > 100 µM (inactive) |  | > 100 µM (inactive) | > 100 µM (inactive) | > 100 µM (inactive) | > 100 µM (inactive) | > 100 µM (inactive) | > 100 |
| C=CC1=C(C)c2cc3[nH]c(c4c5nc(cc6[nH]c(cc1n2)c(C=O)c6CC)C(C)=C5C(=O)[C@@H]4C(=O)OC)[C@@H](CCC(=O)O)[C@@H]3C | 9.25 µM (inactive) | > 100 µM (inactive) | > 100 µM (inactive) | > 100 µM (inactive) | > 100 µM (inactive) | 43.6 µM (inactive) | 20.7 µM (inactive) | 63.4 µM (inactive) | 13.4 µM (inactive) | > 100 µM (inactive) | > 100 µM (inactive) | > 100 µM (inactive) | 45 µM (inactive) | > 100 µM (inactive) | > 100 µM (inactive) | 95.7 µM (inactive) | > 100 µM (inactive) | 63.5 µM (inactive) | 35.6 |
| CCOC(=O)CCC(NC(=O)Cc1ccc(Nc2nc3cc(F)c(F)cc3nc2C(=O)OCC)cc1)C(=O)OCC (stereo unspecified) | > 100 µM (inactive) | 58.7 µM (inactive) | > 100 µM (inactive) | > 100 µM (inactive) | 69.2 µM (inactive) | 44.6 µM (inactive) | 25.2 µM (inactive) | > 100 µM (inactive) | > 100 µM (inactive) | 44.4 µM (inactive) | > 100 µM (inactive) | > 100 µM (inactive) | > 100 µM (inactive) | > 100 µM (inactive) | > 100 µM (inactive) | > 100 µM (inactive) | > 100 µM (inactive) |  | > 100 |
| CCOC(=O)c1ccc(C(=O)OCC)n1-c1cc2cc(c1)CSCc1cc(cc(-n3c(C(=O)OCC)ccc3C(=O)OCC)c1)CSC2 | > 10 µM (inactive) | > 10 µM (inactive) | > 10 µM (inactive) | > 10 µM (inactive) | > 10 µM (inactive) | > 10 µM (inactive) | > 10 µM (inactive) | > 10 µM (inactive) | > 10 µM (inactive) | > 10 µM (inactive) | > 10 µM (inactive) | > 10 µM (inactive) | > 10 µM (inactive) | > 10 µM (inactive) | > 10 µM (inactive) | > 10 µM (inactive) | > 10 µM (inactive) | > 10 µM (inactive) | > 10 |
